We go through 10 compounds from patent US9868715B2 (THE BOARD OF REGENTS OF THE UNIVERSITY OF TEXAS SYSTEMS, priority 2014, dated 2018).

As usually defined, the melting point is the temperature, or range, at which the solid turns liquid.

The nature of data set [1]: Aqueous solubility by HPLC analysis method. Type of data set: physicochemical. The settings on record: in the form of HCl salt.
For data set [2], the system named is transformed PSC (human pancreatic stellate cells). Nature of the data set: PSC proliferation, AlamarBlue Cell Viability Assay. The settings on record: for Inhibitory Effect (%) on PSC proliferation / inhibition at 10 µM: 10 μM; for Inhibitory Effect (%) on PSC proliferation / inhibition at 5 µM / inhibition at 10 µM / inhibition at 20 µM: mean of at least three independent experiments, NE = No effect; for inhibition at 5 µM / inhibition at 10 µM / inhibition at 20 µM: Homo sapiens, read-out: Inhibitory Effect (%) on PSC proliferation; for Antiproliferative effect on PSC, result in words: transformed PSC, AlamarBlue. Type of data set: cell-based. The procedure: The calculated lipophilicity (cLogP) and topological polar surface area (tPSA) values of synthesized analogues are listed in Table 1. […] AlamarBlue is a non-toxic reagent that is converted to a highly fluorescent end product by viable cells.
Under an IRB-approved tissue protocol, discarded human resected pancreatic tissue (500 mm^3) was attained fresh from the operating room at the University of Texas Medical Branch. The tissue was minced and plated on a collagen-coated flask (15 μg/mL, Invitrogen) with DMEM (VWR; Radnor, Pa.) supplemented with penicillin 200 U/mL, streptomycin 200 μg/mL, amphotericin B 0.25 μg/mL and gentimicin 50 μg/mL (Invitrogen, Carlsbad Calif.), 10% fetal bovine serum (Lonza, Walkersville, Md.), 1% insulin-transferrin, selenium-ethanolamine (Gibco, Grand Island, N.Y.), and 1% non-essential amino acids (Sigma-Aldrich, St. Louis, Mo.). The human PSC were isolated by the outgrowth method.^41-43 The purity of PSC culture was confirmed by immunohistochemical staining for vimentin, α-smooth muscle actin, glial fibrillar acidic protein, or Oil red O staining. Primary PSC were transformed and immortalized for use in experiments using lentiviral vectors containing SV40 Large T antigen and human telomerase (plasmid #12245 and 12246; Addgene, Cambridge, Mass.). Cultures were maintained in DMEM with 10% FBS, at 37° C. in a humidified 95% O2/5% CO2 atmosphere.
Cell proliferation assay. Transformed PSC (3×10^3) were plated in 96-well plates, in sextuplicate. […] AlamarBlue reagent (10% sample volume, DAL1025) was added to each well per Invitrogen's protocol. Fluorescence was recorded using excitation/emission wavelengths of 544/590 nm and the SpectraMax M2 Microplate Reader (Molecular Devices, Sunnyvale Calif.).
Statistical analysis. Dose-response curves were generated by plotting fluorescence or absorbance versus log (compound concentration). A best-fit curve was created using nonlinear regression, and the IC50 or EC50 determined from the graph (GraphPad Prism 5; GraphPad Software Inc., La Jolla, Calif.). To analyze continuos variables, unpaired student t-tests and one-way ANOVA with Tukey-Kramer multiple comparisons post-test (GraphPad Prism 5). Significance was set at p<0.05.

Data set [3] has as its target T1, human CBS (cystathionine-β-synthase) (Homo sapiens, UniProt P35520).
T1 construct: GST (N); made in house; host or cells: E. coli BL21(DE3) Codon Plus
T1 sequence (P35520 1-551): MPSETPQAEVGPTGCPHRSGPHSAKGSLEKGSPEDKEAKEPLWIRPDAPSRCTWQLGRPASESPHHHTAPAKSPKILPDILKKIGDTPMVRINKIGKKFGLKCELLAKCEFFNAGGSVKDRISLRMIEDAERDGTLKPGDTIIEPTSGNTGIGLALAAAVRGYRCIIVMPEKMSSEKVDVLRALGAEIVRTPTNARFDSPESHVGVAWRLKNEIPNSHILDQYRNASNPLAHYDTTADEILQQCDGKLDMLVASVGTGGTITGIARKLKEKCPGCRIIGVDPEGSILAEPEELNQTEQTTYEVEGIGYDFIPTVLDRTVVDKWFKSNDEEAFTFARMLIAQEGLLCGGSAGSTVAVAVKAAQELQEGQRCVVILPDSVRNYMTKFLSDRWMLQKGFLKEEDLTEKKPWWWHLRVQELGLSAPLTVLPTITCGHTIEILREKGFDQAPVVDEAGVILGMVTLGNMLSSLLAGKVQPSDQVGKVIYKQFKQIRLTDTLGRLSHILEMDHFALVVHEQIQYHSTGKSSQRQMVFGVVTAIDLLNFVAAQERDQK
Nature of the data set: H2S production by recombinant CBS. The settings on record: 100 μM compound; H2S production as % of control (100%). The format is biochemical. The procedure:
Recombinant human CBS protein expression and purification. The expression and purification of human CBS was performed as described previously (Asimakopoulou et al. 2013, Br J Pharmacol. 169(4):922-32). Briefly, E. Coli BL21(DE3) Codon Plus cells (Stratagene, La Jolla, Calif., USA) containing the expression vector pGEX-Kg/GST-CBS were grown at 37° C. and 180 rpm in LuriaBertani (LB) broth medium containing 100 μg/ml ampicillin to an absorption of 0.6-0.8 at 600 nm. Protein expression was induced by addition of 0.1 mM IPTG (isopropyl-b-D-thiogalactopyranoside) and cells were further incubated at 30° C. overnight. The bacteria were harvested and sonicated in lysis buffer PBS (140 mM NaCl, 2.7 mM KCl, 10 mM Na2HPO4, 1.8 mM KH2PO4, pH 7.8) containing a protease inhibitors cocktail (Sigma). The protein lysate was loaded onto a GSTrap FF 1 ml affinity column (Amersham Biosciences) and the GST-CBS recombinant protein was eluted with the elution buffer (50 mM Tris-HCl, 10 mM reduced glutathione, pH 8.0) and then dialyzed and concentrated in 10 mM sodium phosphate buffer (pH 8.2) and DTT (1 mM).
Measurement of H2S production by recombinant CBS. The measurement of H2S production by recombinant CBS enzyme was performed as described (Asimakopoulou et al. 2013, Br J Pharmacol. 169(4):922-32). Briefly, each test consisted of a 100 μl reaction mixture in 50 mM sodium phosphate buffer pH 8.2 containing 1 μg of the purified human CBS enzyme, 0.01 mM pyridoxal-5′-phosphate (PLP), 10 mM L-cysteine and 0.5 mM homocysteine. […] The reaction was initiated by transferring the Eppendorf tubes from ice to a 37° C. shaking water bath. After 60 minutes of incubation at 37° C., the reaction was terminated by adding 1% ZnAc followed by 10% trichloroacetic acid. Subsequently, N,N-dimethylphenylendiamine sulfate (20 mM in 7.2 M HCl) and FeCl3 (30 mM in 1.2 M HCl) were added and the optical absorbance of the solutions was measured at 650 nm.

The compound `COc1cc(OC)c2c(=O)cc(-c3ccc(OCCN4CCCCC4)cc3)oc2c1` [Compound 14, 5,7-Dimethoxy-2-(4-(2-piperidin-1-yl-ethoxy)phenyl)-chromen-4-one] returned a melting point of 79 to 80 °C. Besides, in data set [1], the “Aqueous solubility compared with apigenin, result in words” value is on record as “significantly improved solubility” and the “Aqueous solubility, saturated concentration” value turned out to be 17.4 mg/mL. Besides, in data set [2], the “Inhibitory Effect (%) on PSC proliferation” value (“Inhibitory Effect (%)” for short) is listed as 64%, the inhibition at 5 µM is 45%, the inhibition at 10 µM was 64% and the inhibition at 20 µM turned out to be 97%. Also, the “Antiproliferative effect on PSC, result in words” value (from here on “Antiproliferative effect on PSC”) in data set [2] is reported as “potent antiproliferative effects”. Besides, the activity at 100 µM in data set [3] is 129%.

In turn, `COc1cc(OC)c2c(=O)cc(-c3ccc(OCCN4CCCC4)cc3)oc2c1` [Compound 16, 5,7-Dimethoxy-2-(4-(2-pyrrolidin-1-yl-ethoxy)phenyl)-chromen-4-one] registered a melting point of 114 to 115 °C. Besides, in data set [1], the “Aqueous solubility compared with apigenin, result in words” value is listed as “significantly improved solubility” and the “Aqueous solubility, saturated concentration” value came out at 13.7 mg/mL. In addition, in data set [2], the “Inhibitory Effect (%)” value came to 66%, the inhibition at 5 µM is 48%, the inhibition at 10 µM came to 66% and the inhibition at 20 µM came out at 98%. In addition, in data set [2], the “Antiproliferative effect on PSC” value is on record as “potent antiproliferative effects”. In addition, the activity at 100 µM in data set [3] worked out at 131%.

As to `COc1cc(OC)c2c(=O)cc(-c3ccc(OCCN(C)C)cc3)oc2c1` [Compound 10, 2-(4-(2-Dimethylaminoethoxy)phenyl)-5,7-dimethoxy-chromen-4-one], the melting point fell in the range of 153 to 154 °C. In data set [2], the “Inhibitory Effect (%)” value is 51%, the inhibition at 5 µM was found to be 19%, the inhibition at 10 µM was 51% and the inhibition at 20 µM was determined as 65%. Besides, in data set [3], the activity at 100 µM turned out to be 125%.

Consider `COc1cc(OC)c2c(=O)cc(-c3ccc(NCCN(C)C)cc3)oc2c1` [Compound 36, 2-(4-(2-Dimethylaminoethylamino)phenyl)-5,7-dimethoxy-chromen-4-one], for which the melting point lay in the range of 159 to 160 °C. In data set [2], the inhibition at 5 µM was 30%, the inhibition at 10 µM is 60% and the inhibition at 20 µM is 84%. Further, the activity at 100 µM in data set [3] was determined as 112%.

`COc1cc(O)c2c(=O)cc(-c3ccc(OCCN4CCCC4)cc3)oc2c1` [Compound 38]: the melting point lay within 127 to 129 °C. For the same compound, in data set [2], the inhibition at 10 µM stood at 39% and the inhibition at 20 µM was 99%. In addition, the activity at 100 µM in data set [3] is 109%.

`COc1cc(OC)c2c(=O)cc(-c3ccc(OCCCN(C)C)cc3)oc2c1` [Compound 12, 2-(4-(3-Dimethylaminopropoxy)phenyl)-5,7-dimethoxy-chromen-4-one] showed a melting point of 105 to 106 °C. Moreover, in data set [2], the “Inhibitory Effect (%)” value worked out at 59%, the inhibition at 5 µM worked out at 36%, the inhibition at 10 µM worked out at 59% and the inhibition at 20 µM turned out to be 86%. Further, in data set [3], the activity at 100 µM is 83.9%.

In the case of `COc1cc(OC)c2c(=O)cc(-c3ccc(OC4CCNCC4)cc3)oc2c1` [Compound 19, 5,7-Dimethoxy-2-(4-(piperidin-4-yloxy)-phenyl)-chromen-4-one], the melting point was 205 to 206 °C. For the same compound, the inhibition at 10 µM in data set [2] was found to be 21%. In data set [3], the activity at 100 µM was determined as 115%.

Consider `COc1cc(OC)c2c(=O)cc(-c3ccc(-c4ccc(F)nc4)cc3)oc2c1` [Compound 33, 2-(4-(6-Fluoropyridin-3-yl)phenyl)-5,7-dimethoxy-chromen-4-one], for which the melting point is 209 to 210 °C. For the same compound, in data set [2], the inhibition at 10 µM stood at 6%; the inhibition at 20 µM turned out to be 19%; the “Antiproliferative effect on PSC” value was “substantial loss of the activity”. Besides, the activity at 100 µM in data set [3] turned out to be 107%.

Turning to `O=c1cc(-c2ccc(OCCN3CCCC3)cc2)oc2cc(O)cc(O)c12` [Compound 39], the melting point lay in the range of 228 to 229 °C. Also, in data set [2], the inhibition at 5 µM was determined as 2%, the inhibition at 10 µM amounted to 71% and the inhibition at 20 µM was found to be 90%. In addition, the activity at 100 µM in data set [3] stood at 99.6%.

For the compound `COc1cc(OC)c2c(=O)cc(-c3ccc(OCCF)cc3)oc2c1` [Compound 8, 2-(4-(2-Fluoroethoxy)phenyl)-5,7-dimethoxy-chromen-4-one], the melting point was in the range of 187 to 188 °C. Besides, in data set [2], the inhibition at 20 µM amounted to 21% and the “Antiproliferative effect on PSC” value is “slightly increased antiproliferative effects in comparison with 6”. In addition, in data set [3], the activity at 100 µM was found to be 127%.
